Assay results as given in US9751887B2, “Imidazo[1,2-b]pyridazine derivatives as kinase inhibitors” (Daiichi Sankyo Company, Limited, priority 2012, dated 2017).

What was measured:
ROS1 [1] = biological target: T1, ROS1 (Homo sapiens, UniProt P08922); assay: ROS1 kinase inhibitory activity evaluation (mobility shift, EZ Reader II); type: biochemical; settings: ROS1 25 pg/μL, FL-Peptide 22 substrate, three separate measurements
T1 construct: purchased Carna Biosciences 08-163
Procedure: Next, a substrate reaction solution was prepared. […] Then, the reaction stop solution was added thereto at a concentration of 40 μL/well. Substrate phosphorylation intensity was measured using EZ Reader II (Caliper Life Sciences).

ROS1 [2] = biological target: T1, ROS1; assay: ROS1 autophosphorylation inhibitory activity evaluation (ADP-Glo); type: biochemical; settings: 200 nM inactive ROS1, ATP 1 mM, 25° C. 1.5 hours, ADP generated, four separate measurements
In short: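 ROS1 autophosphorylation ran with 1 mM final ATP in 50 mM HEPES pH 7.5, 10 mM MgCl2, 0.01% Brij-58, 2.5 mM DTT for 1.5 h at 25° C. ADP generated was read by ADP-Glo luminescence. IC50 values were obtained by curve fitting.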

NTRK1 = biological target: T2, NTRK1 (Homo sapiens, UniProt P04629); assay: NTRK kinase enzyme inhibitory activity evaluation, NTRK1; type: biochemical; settings: FL-Peptide 27 substrate, ATP Km=33 μM, three separate measurements
T2 construct: purchased Carna Biosciences 08-186
Procedure: (§1) NTRK1, NTRK2, and NTRK3 kinase solutions were each prepared. […]; Next, a substrate reaction solution was prepared.
(§2) Subsequently, a reaction stop solution was prepared. The composition is as follows: 100 mM HEPES (pH 7.4), 0.015% Brij-35, 40 mM EDTA, and 0.1% Coating Reagent 3 (Caliper Life Sciences #760050).
(§3) The NTRK1, NTRK2, and NTRK3 kinase solutions were each added at a concentration of 19 μL/well to a 96-well plate. Each compound for evaluation dissolved in DMSO to achieve each final concentration was added to the plate, mixed using a plate mixer, and then preincubated at room temperature for 20 minutes. […] Then, the reaction stop solution was added thereto at a concentration of 40 μL/well. Substrate phosphorylation intensity was measured using EZ Reader II (Caliper Life Sciences). IC50 values were calculated by curve fitting using Microsoft Excel 2010 on the basis of data obtained from three separate measurements.

NTRK2 = biological target: T3, NTRK2 (Homo sapiens, UniProt Q16620); assay: NTRK kinase enzyme inhibitory activity evaluation, NTRK2; type: biochemical; settings: FL-Peptide 27 substrate, ATP Km=63 μM, three separate measurements
T3 construct: purchased Carna Biosciences 08-187
Procedure: as §1, §2, §3

NTRK3 = biological target: T4, NTRK3 (Homo sapiens, UniProt Q16288); assay: NTRK kinase enzyme inhibitory activity evaluation, NTRK3; type: biochemical; settings: FL-Peptide 27 substrate, ATP Km=32 μM, three separate measurements
T4 construct: purchased Carna Biosciences 08-197
Procedure: as §1, §2, §3

[3] = system: HCC78 cells having ROS1 fusion gene; assay: HCC78 cell growth assay (CellTiter-Glo); type: cell-based; settings: Homo sapiens, HCC78, 72 h, 72 hours culture, 2% FBS medium, luminescence, four separate measurements; read-out: growth inhibitory effect on HCC78 cells having ROS1 fusion gene IC50

T2 sequence (P04629 33-796): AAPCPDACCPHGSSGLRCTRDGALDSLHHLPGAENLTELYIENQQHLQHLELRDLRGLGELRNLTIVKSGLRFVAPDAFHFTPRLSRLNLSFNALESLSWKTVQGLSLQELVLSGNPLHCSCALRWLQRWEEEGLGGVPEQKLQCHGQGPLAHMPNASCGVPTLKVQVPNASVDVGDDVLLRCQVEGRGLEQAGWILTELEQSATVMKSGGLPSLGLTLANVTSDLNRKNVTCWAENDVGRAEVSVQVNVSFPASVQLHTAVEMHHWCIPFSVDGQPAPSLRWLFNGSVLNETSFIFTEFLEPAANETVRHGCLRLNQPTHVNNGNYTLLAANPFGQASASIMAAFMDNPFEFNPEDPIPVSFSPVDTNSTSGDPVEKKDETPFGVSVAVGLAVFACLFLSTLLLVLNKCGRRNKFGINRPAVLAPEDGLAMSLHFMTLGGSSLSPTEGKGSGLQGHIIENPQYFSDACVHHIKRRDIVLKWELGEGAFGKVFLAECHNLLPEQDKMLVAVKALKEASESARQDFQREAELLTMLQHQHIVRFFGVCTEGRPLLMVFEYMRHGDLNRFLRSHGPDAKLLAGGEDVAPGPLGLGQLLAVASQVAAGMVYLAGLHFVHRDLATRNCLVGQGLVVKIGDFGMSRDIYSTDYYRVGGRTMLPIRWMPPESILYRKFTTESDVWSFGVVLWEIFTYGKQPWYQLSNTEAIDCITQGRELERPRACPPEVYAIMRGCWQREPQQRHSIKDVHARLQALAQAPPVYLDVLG
T3 sequence (Q16620 32-822): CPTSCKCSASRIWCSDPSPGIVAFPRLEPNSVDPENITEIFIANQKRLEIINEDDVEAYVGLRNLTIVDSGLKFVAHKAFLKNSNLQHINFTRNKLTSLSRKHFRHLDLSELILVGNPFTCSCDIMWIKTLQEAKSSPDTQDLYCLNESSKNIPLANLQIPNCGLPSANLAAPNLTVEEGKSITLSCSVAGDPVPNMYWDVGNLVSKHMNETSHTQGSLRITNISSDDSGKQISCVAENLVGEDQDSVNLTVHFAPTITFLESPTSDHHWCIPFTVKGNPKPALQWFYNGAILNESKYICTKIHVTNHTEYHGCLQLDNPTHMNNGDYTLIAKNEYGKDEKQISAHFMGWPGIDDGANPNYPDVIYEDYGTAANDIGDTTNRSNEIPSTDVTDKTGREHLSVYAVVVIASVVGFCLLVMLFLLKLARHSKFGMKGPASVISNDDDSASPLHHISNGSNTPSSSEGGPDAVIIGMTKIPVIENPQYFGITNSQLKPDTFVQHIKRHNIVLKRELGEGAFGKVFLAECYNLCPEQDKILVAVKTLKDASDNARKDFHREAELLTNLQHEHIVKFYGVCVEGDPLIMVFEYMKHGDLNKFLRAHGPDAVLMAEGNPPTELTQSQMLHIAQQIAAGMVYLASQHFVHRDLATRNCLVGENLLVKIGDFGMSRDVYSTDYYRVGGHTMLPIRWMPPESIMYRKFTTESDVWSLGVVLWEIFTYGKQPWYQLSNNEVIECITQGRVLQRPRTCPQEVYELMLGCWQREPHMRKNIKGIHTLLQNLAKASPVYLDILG
T1 sequence (P08922 28-2347): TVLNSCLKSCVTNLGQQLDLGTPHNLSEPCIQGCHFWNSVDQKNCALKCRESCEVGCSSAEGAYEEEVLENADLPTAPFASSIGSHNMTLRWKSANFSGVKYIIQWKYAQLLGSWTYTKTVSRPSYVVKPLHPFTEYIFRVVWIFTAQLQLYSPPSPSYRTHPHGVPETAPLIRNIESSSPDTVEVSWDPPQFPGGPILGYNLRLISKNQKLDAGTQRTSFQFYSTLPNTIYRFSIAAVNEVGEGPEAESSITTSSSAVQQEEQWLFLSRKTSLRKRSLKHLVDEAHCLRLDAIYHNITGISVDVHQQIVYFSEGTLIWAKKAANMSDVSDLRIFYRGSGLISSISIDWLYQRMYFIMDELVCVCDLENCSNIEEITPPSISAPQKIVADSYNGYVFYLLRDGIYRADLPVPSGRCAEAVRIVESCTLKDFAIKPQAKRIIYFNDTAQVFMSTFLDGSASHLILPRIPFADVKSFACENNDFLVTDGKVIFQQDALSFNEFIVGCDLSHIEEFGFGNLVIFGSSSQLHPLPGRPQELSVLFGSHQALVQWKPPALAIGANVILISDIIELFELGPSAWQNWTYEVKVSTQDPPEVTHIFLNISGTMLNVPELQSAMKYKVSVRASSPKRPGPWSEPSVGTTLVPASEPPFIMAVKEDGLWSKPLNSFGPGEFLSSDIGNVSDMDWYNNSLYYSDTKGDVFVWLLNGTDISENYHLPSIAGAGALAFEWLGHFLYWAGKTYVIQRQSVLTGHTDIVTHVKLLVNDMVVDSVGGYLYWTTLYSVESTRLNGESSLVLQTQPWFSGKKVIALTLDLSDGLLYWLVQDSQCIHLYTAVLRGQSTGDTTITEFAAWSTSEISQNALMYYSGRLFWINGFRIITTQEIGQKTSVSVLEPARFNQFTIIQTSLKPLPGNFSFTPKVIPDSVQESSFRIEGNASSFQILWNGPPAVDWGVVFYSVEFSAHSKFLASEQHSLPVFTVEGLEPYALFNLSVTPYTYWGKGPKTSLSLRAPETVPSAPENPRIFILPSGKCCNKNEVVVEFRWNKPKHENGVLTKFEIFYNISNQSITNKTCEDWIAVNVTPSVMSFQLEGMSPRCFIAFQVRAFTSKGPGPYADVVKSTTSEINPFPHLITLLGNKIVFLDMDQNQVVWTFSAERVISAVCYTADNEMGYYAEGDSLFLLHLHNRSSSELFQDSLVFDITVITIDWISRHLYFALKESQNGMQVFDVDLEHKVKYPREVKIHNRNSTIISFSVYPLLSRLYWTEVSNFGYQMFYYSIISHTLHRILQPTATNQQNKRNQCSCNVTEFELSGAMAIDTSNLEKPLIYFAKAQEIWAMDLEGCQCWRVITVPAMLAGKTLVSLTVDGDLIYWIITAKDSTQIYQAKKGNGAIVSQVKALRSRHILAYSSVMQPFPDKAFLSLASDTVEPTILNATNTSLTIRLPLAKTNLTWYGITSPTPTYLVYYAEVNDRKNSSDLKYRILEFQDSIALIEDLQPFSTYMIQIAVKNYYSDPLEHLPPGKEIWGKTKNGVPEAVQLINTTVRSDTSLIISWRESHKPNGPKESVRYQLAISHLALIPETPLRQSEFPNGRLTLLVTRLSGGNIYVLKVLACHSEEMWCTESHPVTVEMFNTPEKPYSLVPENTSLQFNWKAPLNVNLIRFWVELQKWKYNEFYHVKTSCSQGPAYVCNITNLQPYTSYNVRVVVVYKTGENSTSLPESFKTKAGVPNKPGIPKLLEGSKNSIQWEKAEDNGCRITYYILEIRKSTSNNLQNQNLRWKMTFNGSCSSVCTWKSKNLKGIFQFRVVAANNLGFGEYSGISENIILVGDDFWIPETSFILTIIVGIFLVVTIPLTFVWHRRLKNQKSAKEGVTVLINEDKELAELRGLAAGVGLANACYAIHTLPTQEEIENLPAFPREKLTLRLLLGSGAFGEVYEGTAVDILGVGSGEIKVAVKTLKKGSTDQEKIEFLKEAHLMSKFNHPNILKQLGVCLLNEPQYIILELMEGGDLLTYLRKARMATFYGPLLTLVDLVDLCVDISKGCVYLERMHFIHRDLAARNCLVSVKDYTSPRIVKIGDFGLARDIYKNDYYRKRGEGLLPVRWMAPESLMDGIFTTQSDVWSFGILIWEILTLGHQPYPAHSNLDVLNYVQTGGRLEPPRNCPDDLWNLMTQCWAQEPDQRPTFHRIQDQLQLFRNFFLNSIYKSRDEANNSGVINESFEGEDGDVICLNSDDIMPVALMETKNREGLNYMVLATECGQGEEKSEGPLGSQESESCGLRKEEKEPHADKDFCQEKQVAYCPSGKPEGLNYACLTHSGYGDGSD
T4 sequence (Q16288 32-839): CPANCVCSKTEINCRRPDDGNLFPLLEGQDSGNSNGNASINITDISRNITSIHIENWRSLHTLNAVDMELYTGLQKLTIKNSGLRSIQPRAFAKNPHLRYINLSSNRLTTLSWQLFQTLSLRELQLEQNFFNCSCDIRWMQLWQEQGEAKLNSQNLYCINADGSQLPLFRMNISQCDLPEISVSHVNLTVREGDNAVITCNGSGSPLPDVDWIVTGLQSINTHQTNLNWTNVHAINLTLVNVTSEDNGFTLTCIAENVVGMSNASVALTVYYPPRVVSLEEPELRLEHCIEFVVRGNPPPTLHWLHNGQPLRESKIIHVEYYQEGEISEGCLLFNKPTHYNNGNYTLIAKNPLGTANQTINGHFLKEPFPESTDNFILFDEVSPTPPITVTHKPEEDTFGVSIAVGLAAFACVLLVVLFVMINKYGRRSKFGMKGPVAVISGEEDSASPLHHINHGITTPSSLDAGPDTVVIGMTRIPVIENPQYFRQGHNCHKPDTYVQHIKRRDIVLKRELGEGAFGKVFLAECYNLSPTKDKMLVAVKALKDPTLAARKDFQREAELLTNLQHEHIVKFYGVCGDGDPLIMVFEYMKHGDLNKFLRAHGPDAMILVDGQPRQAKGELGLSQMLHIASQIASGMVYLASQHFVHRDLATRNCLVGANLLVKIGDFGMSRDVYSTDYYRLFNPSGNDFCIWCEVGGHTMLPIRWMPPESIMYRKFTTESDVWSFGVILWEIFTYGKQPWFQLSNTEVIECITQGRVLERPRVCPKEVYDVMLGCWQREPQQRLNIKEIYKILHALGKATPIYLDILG

| IC50 (ROS1 [1]) | IC50 (ROS1 [2]) | IC50 (NTRK1) | IC50 (NTRK2) | IC50 (NTRK3) | IC50 [3] | Structure (SMILES) |
| --- | --- | --- | --- | --- | --- | --- |
| – | – | < 5 nM | < 10 nM | < 5 nM | < 20 nM | C[C@H](N)COc1ccc(-c2cnc3ccc(N[C@H](C)c4cccc(F)c4)nn23)cc1 [Example 41, 3-[4-[(2S)-2-Aminopropoxy]phenyl]-N-[(1R)-1-(3-fluorophenyl)ethyl]imidazo[1,2-b]pyridazin-6-amine] |
| – | – | < 5 nM | < 10 nM | < 5 nM | < 20 nM | C[C@@H](N)COc1ccc(-c2cnc3ccc(N[C@H](C)c4cccc(F)c4)nn23)cc1 [Example 21, 3-[4-[(2R)-2-Aminopropoxy]phenyl]-N-[(1R)-1-(3-fluorophenyl)ethyl]imidazo[1,2-b]pyridazin-6-amine] |
| < 1 nM | < 20 nM | < 5 nM | < 10 nM | < 5 nM | < 20 nM | C[C@@H](Nc1ccc2ncc(-c3ccc(OC[C@@H]4CCN4)cc3)n2n1)c1cccc(F)c1 [Example 30, 3-[4-[[(2S)-Azetidin-2-yl]methoxy]phenyl]-N-[(1R)-1-(3-fluorophenyl)ethyl]imidazo[1,2-b]pyridazin-6-amine] |
| < 1 nM | < 20 nM | < 5 nM | < 10 nM | < 5 nM | < 20 nM | CNCCOc1ccc(-c2cnc3ccc(N[C@H](C)c4cccc(F)c4)nn23)cc1 [Example 29, N-[(1R)-1-(3-Fluorophenyl)ethyl]-3-[4-[2-(methylamino)ethoxy]phenyl]imidazo[1,2-b]pyridazin-6-amine] |

The next lines start with the compound.

| Structure (SMILES) | IC50 (ROS1 [1]) | IC50 (ROS1 [2]) | IC50 (NTRK1) | IC50 (NTRK2) | IC50 (NTRK3) | IC50 [3] |
| --- | --- | --- | --- | --- | --- | --- |
| C[C@@H](Nc1ccc2ncc(-c3ccc(OC[C@@H]4CCCN4)cc3)n2n1)c1cccc(F)c1 [Example 24, N-[(1R)-1-(3-Fluorophenyl)ethyl]-3-[4-[[(2S)-pyrrolidin-2-yl]methoxy]phenyl]imidazo[1,2-b]pyridazin-6-amine] | < 1 nM | < 20 nM | < 5 nM | < 10 nM | < 5 nM | 20 to 100 nM |
| CN(Cc1cccc(F)c1)c1ccc2ncc(-c3ccc(N4C[C@@H](N)CC4=O)cc3)n2n1 [Example 81, (4S)-4-Amino-1-[4-[6-[(3-fluorophenyl)methyl-methylamino]imidazo[1,2-b]pyridazin-3-yl]phenyl]pyrrolidin-2-one] | < 1 nM | < 20 nM | < 5 nM | < 10 nM | < 5 nM | < 20 nM |
| C[C@@H](Oc1ccc2ncc(-c3ccc(N4C[C@@H](N)CC4=O)cc3)n2n1)c1cccc(F)c1 [Example 79, (4S)-4-Amino-1-[4-[6-[(1R)-1-(3-fluorophenyl)ethoxy]imidazo[1,2-b]pyridazin-3-yl]phenyl]pyrrolidin-2-one] | < 1 nM | – | < 5 nM | < 10 nM | < 5 nM | < 20 nM |
| C[C@@H](Nc1ccc2ncc(-c3ccc(N4C[C@@H](N)CC4=O)cc3)n2n1)c1cccc(F)c1 [Example 90, (4S)-4-Amino-1-[4-[6-[[(1R)-1-(3-fluorophenyl)ethyl]amino]imidazo[1,2-b]pyridazin-3-yl]phenyl]pyrrolidin-2-one] | < 1 nM | < 20 nM | < 5 nM | < 10 nM | < 5 nM | < 20 nM |
| COc1cc(N2C[C@@H](N)CC2=O)ccc1-c1cnc2ccc(N(C)Cc3cccc(F)c3)nn12 [Example 85, (4S)-4-Amino-1-[4-[6-[(3-fluorophenyl)methyl-methylamino]imidazo[1,2-b]pyridazin-3-yl]-3-methoxyphenyl]pyrrolidin-2-one] | 1 to 10 nM | < 20 nM | < 5 nM | < 10 nM | < 5 nM | 20 to 100 nM |
| C[C@@H](Oc1ccc2ncc(-c3ccc(N4C[C@@H](N)CC4=O)nc3)n2n1)c1cccc(F)c1 [Example 127, (4S)-4-Amino-1-[5-[6-[(1R)-1-(3-fluorophenyl)ethoxy]imidazo[1,2-b]pyridazin-3-yl]-2-pyridyl]pyrrolidin-2-one] | < 1 nM | < 20 nM | 10 to 15 nM | 20 to 25 nM | 5 to 10 nM | 20 to 100 nM |
| C[C@@H](Nc1ccc2ncc(-c3ccc(N4C[C@@H](N)CC4=O)cc3F)n2n1)c1cccc(F)c1 [Example 93, (4S)-4-Amino-1-[3-fluoro-4-[6-[[(1R)-1-(3-fluorophenyl)ethyl]amino]imidazo[1,2-b]pyridazin-3-yl]phenyl]pyrrolidin-2-one] | < 1 nM | < 20 nM | – | – | – | < 20 nM |
